This is an account of results in patent publication US20120264684A1, “Glycosylated Form of Antigenic GLP-1 Analogue” (priority 2009, published 2012).

Data set [1] concerns C57BL/6JJcl mice. Description: Oral glucose tolerance test (OGTT) of oligosaccharide chain added liraglutide. In kind it is in vivo. The following applies: 9 nmol/10 ml PBS, 10 ml/kg i.p., 30 minutes before oral glucose 1 mg/g, fasted C57BL/6JJcl mice. How it is done:
(§1) Blood glucose suppressing activity by OGTT can be determined by measuring blood glucose elevation suppression when mice are force-fed sugar. For example, first, a test compound is administered to mice fasted overnight, and glucose solution is orally administered 30 minutes later. Blood glucose in mice will rise from the administration of glucose, reach maximum at about 30 minutes after administration, and then slowly decrease. The blood glucose suppressing action of the oligosaccharide, chain added antigenic GLP-1 analogue can be evaluated by measuring blood glucose 30 minutes after administration of glucose, and comparing it to blood glucose when non-oligosaccharide chain added antigenic GLP-1 analogue is administered. […] Orbital blood was collected before administration of glucose, as well as 30 minutes, 60 minutes, and 120 minutes after administration of glucose, and blood glucose was measured using Accu-Chek Aviva (Roche Diagnostics).

Data set [2] concerns BKS.Cg-+Leprdb/+Leprdb/Jc1 mice (db/db mice). Description: Blood glucose lowering action of oligosaccharide chain added liraglutide using db/db mice. In kind it is in vivo. The following applies: for blood glucose lowering action in db/db mice: 9 nmol/10 mL PBS, 10 mL/kg i.p., blood glucose at 30 to 720 minutes. How it is done: Blood glucose suppressing activity using db/db mice can be determined by measuring blood glucose after administration of a test compound to diabetic mice. Blood glucose after administration of the test compound is measured over time, and if for example, blood glucose 120 minutes after administration is lower than at the time of administration, blood glucose lowering action can be confirmed. For example, sustainability of blood glucose lowering action can also be determined by measuring blood glucose 300 minutes after administration. […] Orbital blood was collected before administration of the compound, as well as 30 minutes, 60 minutes, 120 minutes, 240 minutes, 480 minutes, and 720 minutes later, and blood glucose was measured using Accu-Chek Aviva (Roche Diagnostics). Similarly, non-oligosaccharide chain added liraglutide was also administered to db/db mice, blood glucose was measured over time, and compared to the action of position 30 Cys-disialooligosaccharide chain added liraglutide.

The subject of data set [3] is C57BL/6JJcl mice. Description: Oral glucose tolerance test (OGTT) of oligosaccharide chain added exendin-4. In kind it is in vivo. As to conditions: 0.9 nmol/10 ml PBS, 10 ml/kg i.p., 30 minutes before oral glucose 1 mg/g, fasted C57BL/6JJcl mice, GLP-1 at 9 nmol/10 ml. The procedure:
as §1, with “Diagnostics). Similarly, non-oligosaccharide chain added liraglutide was also administered to db/db mice, blood glucose was measured over time, and compared to the action of position 30 Cys-disialooligosaccharide chain added liraglutide.” for “Diagnostics).”

For data set [4], the system named is BKS.Cg-+Leprdb/+Leprdb/Jc1 mice. Description: Blood glucose lowering action of oligosaccharide chain added exendin-4 using db/db mice. It counts as in vivo. As to conditions: for blood glucose lowering action in db/db mice: 9 mmol/10 mL PBS, 10 mL/kg i.p., blood glucose at 30, 60, 120, 240 minutes. The procedure: Blood glucose suppressing activity using db/db mice can be determined by measuring blood glucose after administration of a test compound to diabetic mice. Blood glucose after administration of the test compound is measured over time, and if for example, blood glucose 120 minutes after administration is lower than at the time of administration, blood glucose lowering action can be confirmed. For example, sustainability of blood glucose lowering action can also be determined by measuring blood glucose 300 minutes after administration.
A PBS solution of position 30 Cys-disialooligosaccharide chain added exendin-4 synthesized in Example 1 ([…]/10 mL) was intraperitoneally administered to BKS.Cg-+Leprdb/+Leprdb/Jc1 mice (10 weeks old, male) at an administration dosage of 10 mL/kg. Orbital blood was collected before administration of the compound, as well as 30 minutes, 60 minutes, 120 minutes, and 240 minutes later, and blood glucose was measured using Accu-Chek Aviva (Roche Diagnostics).
Blood glucose lowering action was compared with non-oligosaccharide chain added exendin-4 synthesized in Comparative Example 1.

The next data set deals with balb/c mice. The following applies: mouse, in vivo. From the text:
The effect of glycosylation on the antigenicity of exendin was verified by sensitizing mice with non-oligosaccharide chain added exendin-4 or position 30 Cys-disialooligosaccharide chain added exendin-4, and comparing blood anti-exendin-4 antibody concentrations.
As priming immunization, position 30 Cys-disialooligosaccharide chain added exendin-4 synthesized in Example 1 and non-oligosaccharide chain added exendin-4 (American Peptide Company) were mixed well with Complete Freund's adjuvant (Difco Laboratories) to make emulsions, and intraperitoneally administered to balb/c mice (female, 7 weeks old). […]
Plasma was collected from mice seven days after the boost immunization. The anti-exendin-4 antibody concentration in plasma was measured by Enzyme-Linked immunosorbent assay (ELISA) using commercially available anti-exendin-4 antibody (Antibodyshop) as the standard.
Fifty μg of non-oligosaccharide chain added exendin-4 was added to a 96-well ELISA plate, and incubated at 37° C. for 2 hours. […] The color development reaction was terminated by adding 20% SDS, and absorption at 405 nm was measured. The concentration of anti-exendin-4 antibody was determined using anti-exendin-4 monoclonal antibody as the standard.

A further data set has as its target albumin (Homo sapiens, UniProt P02768). The following applies: background art; cited from earlier work.
Where [5] appears, read: listed as Oligosaccharide chain added liraglutide.
[6] abbreviates: listed as Position 30 Cys-disialooligosaccharide chain added liraglutide.
The mark [7] stands for this setting: stated with the db/db mice test.
The mark [8] stands for this setting: listed as Oligosaccharide chain added exendin-4.

Entries after “also recorded” stand apart in the source; their conditions may differ.

Chain of albumin (P02768 25-609): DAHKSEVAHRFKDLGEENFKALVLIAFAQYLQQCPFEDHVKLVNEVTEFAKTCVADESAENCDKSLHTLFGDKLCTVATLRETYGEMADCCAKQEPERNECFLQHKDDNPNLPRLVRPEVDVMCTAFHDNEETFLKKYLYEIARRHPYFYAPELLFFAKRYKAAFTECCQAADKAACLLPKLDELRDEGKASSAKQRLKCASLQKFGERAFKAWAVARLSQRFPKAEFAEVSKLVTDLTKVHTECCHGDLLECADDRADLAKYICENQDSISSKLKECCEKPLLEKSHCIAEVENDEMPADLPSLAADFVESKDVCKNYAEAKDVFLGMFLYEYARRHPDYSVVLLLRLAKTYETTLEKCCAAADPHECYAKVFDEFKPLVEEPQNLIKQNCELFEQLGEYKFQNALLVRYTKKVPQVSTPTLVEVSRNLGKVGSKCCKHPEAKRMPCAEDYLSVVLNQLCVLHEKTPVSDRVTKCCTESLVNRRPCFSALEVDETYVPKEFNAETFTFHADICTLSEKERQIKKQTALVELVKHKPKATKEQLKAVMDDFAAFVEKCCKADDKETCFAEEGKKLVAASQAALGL

On to “Position 30 Cys-DisialoOligosaccharide Chain Added Liraglutide”, for which the “blood glucose elevation suppressive action (OGTT)” value in the data set with C57BL/6JJcl mice [1] was “even higher blood glucose elevation suppressive action compared to non-oligosaccharide chain added liraglutide”; in the data set on C57BL/6JJcl mice [1] (setting [5]), “blood glucose elevation suppressive action even higher than non-oligosaccharide chain added liraglutide”; in the data set on C57BL/6JJcl mice [1] (setting [6]), “blood glucose elevation suppressive action higher than vehicle (PBS only) and GLP-1”. In addition, the “blood glucose lowering action in db/db mice” value (shortened to “blood glucose lowering action”) is “blood glucose lowering action and sustainability equal to non-oligosaccharide chain added liraglutide” in data set [2] (setting [5]); “strong blood glucose lowering action 30 minutes after administration; also recorded: blood glucose lowering action and sustainability equal to non-oligosaccharide, chain added liraglutide” in data set [2] (setting [6]). Besides, the “duration of blood glucose lowering effect in db/db mice” value in data set [2] (i.p., 10 mL/kg, last sampling 720 minutes) is 12 h. Moreover, the blood stability entry in data set [2] (setting [7]) is listed as “high blood stability”.

As to Exendin-4, the “blood glucose elevation suppressive action (OGTT)” value in the data set on C57BL/6JJcl mice [3] is “blood glucose elevation suppressive action higher than vehicle (PBS only) and GLP-1”. In addition, the “blood glucose lowering action” value in data set [4] is recorded as “strong blood glucose lowering action 30 minutes after administration”. The “duration of blood glucose lowering effect in db/db mice” value in data set [4] (i.p., 10 mL/kg, last sampling 240 minutes) came out at 240 min. The blood stability entry in data set [4] (setting [7]) was “high blood stability”.

On to “Position 30 Cys-DisialoOligosaccharide Chain Added Exendin-4”, for which, in the data set with balb/c mice, the “plasma anti-exendin-4 antibody concentration / antibody titer compared to non-oligosaccharide chain added exendin-4” value is recorded as “about one-quarter”. The “blood glucose elevation suppressive action (OGTT)” value with C57BL/6JJcl mice [3] (setting [8]) is reported as “blood glucose elevation suppressive action equal to non-oligosaccharide chain added exendin-4”. For the same compound, the “blood glucose lowering action” value in data set [4] (setting [8]) is “string blood glucose lowering action equal to non-oligosaccharide chain added exendin-4”; in data set [4] (listed as Position 30 Cys-disialooligosaccharide chain added exendin-4), “blood glucose lowering action and sustainability equal to non-oligosaccharide chain added exendin-4”.

On to `CCCCCCCCCCCCCCCC(=O)N[C@@H](CCC(=O)NCCCC[C@H](NC(=O)[C@H](C)NC(=O)[C@H](C)NC(=O)[C@H](CCC(N)=O)NC(=O)CNC(=O)[C@H](CCC(=O)O)NC(=O)[C@H](CC(C)C)NC(=O)[C@H](Cc1ccc(O)cc1)NC(=O)[C@H](CO)NC(=O)[C@H](CO)NC(=O)[C@@H](NC(=O)[C@H](CC(=O)O)NC(=O)[C@H](CO)NC(=O)[C@@H](NC(=O)[C@H](Cc1ccccc1)NC(=O)[C@@H](NC(=O)CNC(=O)[C@H](CCC(=O)O)NC(=O)[C@H](C)NC(=O)[C@@H](N)Cc1cnc[nH]1)[C@@H](C)O)[C@@H](C)O)C(C)C)C(=O)N[C@@H](CCC(=O)O)C(=O)N[C@@H](Cc1ccccc1)C(=O)N[C@H](C(=O)N[C@@H](C)C(=O)N[C@@H](Cc1c[nH]c2ccccc12)C(=O)N[C@@H](CC(C)C)C(=O)N[C@H](C(=O)N[C@@H](CCCNC(=N)N)C(=O)NCC(=O)N[C@@H](CCCNC(=N)N)C(=O)NCC(=O)O)C(C)C)[C@@H](C)CC)C(=O)O` [Liraglutide], for which the “administered amount that binds to albumin” value on albumin is listed as “about 99%”.
